Results published in US9085750B2, “Stabilized subtilisin composition” (Novozymes A/S, priority 2011, dated 2015).

How the values were obtained:
Type in all cases: biochemical
[1] = molecular target: T1, subtilisin (Savinase 16L) (Lederbergia lenta, UniProt P29600); experiment: Remaining protease activity of Savinase 16L after storage in the Table 1 detergent (hydrolysis of N,N-dimethylcasein); conditions: one week at 40° C.
T1 construct: purchased Novozymes A/S Savinase 16L
T1 sequence (P29600 1-269): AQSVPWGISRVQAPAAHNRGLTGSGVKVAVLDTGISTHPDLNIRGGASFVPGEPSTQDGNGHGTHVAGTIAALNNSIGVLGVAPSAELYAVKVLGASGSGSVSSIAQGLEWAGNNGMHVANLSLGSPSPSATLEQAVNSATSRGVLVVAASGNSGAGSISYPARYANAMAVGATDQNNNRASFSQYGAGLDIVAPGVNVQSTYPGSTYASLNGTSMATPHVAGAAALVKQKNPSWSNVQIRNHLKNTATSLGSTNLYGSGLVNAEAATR
Description: (§1) General experimental details: Detergents with a subtilisin (Savinase 16L) and a lipase (Lipex 100L) with or without X—B^1—NH—CHR—CHOH—SO3Na (the peptide aldehyde hydrosulfite adduct can be added separately to the detergent containing the subtilisin) are placed in closed glasses at −18° C.; 35° C. and 40° C. Residual activities of protease and lipase are measured after different times using standard analytical methods (protease by hydrolysis of N,N-dimethylcasein at 40° C., pH 8.3 and lipase by hydrolysis of pNp-valerate at 40° C., pH 7.7). Similar trials can be made with addition of subtilisin to a detergent already containing suitable amounts of the peptide aldehyde hydrosulfite adduct. Similar results can be obtained with all the mentioned peptide aldehyde bisulfite adducts.
As an example of detergent composition with a stabilized subtilisin formulation, the composition described in Table 1 was made.
In Table 2 are shown the results obtained with X=Cbz-Gly; B^1=Ala; R═—CH2-p(C6H4)—OH; stability measured after one week incubation at 40° C. in the detergent described in Table 1.

Subtilisin: Savinase = molecular target: T2, Subtilisin: Savinase (Lederbergia lenta, UniProt P29600); experiment: Remaining subtilisin activity after storage in the Table 3 detergent; conditions: 2 weeks at 35° C.
T2 construct: purchased Novozymes A/S Savinase 16L
T2 sequence (P29600 1-269): T1 sequence (P29600 1-269)
Description: as §1
(§2) As an example of a detergent composition with a stabilized subtilisin formulation, the composition described in Table 3 was made.
(§3) In Table 4 are shown the results measured after two weeks incubation at 35° C. in the detergent described in Table 3.

Lipase: Lipex 100L = experiment: Remaining lipase activity after storage with subtilisin in the Table 3 detergent (hydrolysis of pNp-valerate); conditions: 2 weeks at 35° C.
Description: as §1, §2, §3

Subtilisin Coronase 48L = experiment: Remaining subtilisin activity after storage in the Table 5 detergent, Coronase 48L; conditions: 59 ppm inhibitor in detergent of Table 5
Description: as §1
(§4) As yet another example of a detergent with a stabilized subtilisin formulation, the composition described in Table 5 was made.
(§5) In Table 6 are shown the results measured after 4 weeks incubation at 37° C., and after 8 weeks incubation at 30° C., in the detergent described in Table 5.

[2] = tested on: Subtilisin Liquanase 2.5L; experiment: Remaining subtilisin activity after storage in the Table 5 detergent, Liquanase 2.5L; conditions: 34 ppm inhibitor in detergent of Table 5
Description: as §1, §4, §5

Lipase: Lipoclean 2000L = experiment: Remaining lipase activity after storage with subtilisin in the Table 5 detergent
Description: as §1, §4, §5

Row | Compound | Protease stability (remaining activity) ([1]; 7 ppm inhibitor in detergent of Table 1) | Protease stability (remaining activity) ([1]; 14 ppm inhibitor in detergent of Table 1) | Protease stability (remaining activity) ([1]; 18 ppm inhibitor in detergent of Table 1) | Remaining activity of Subtilisin (protease) (Subtilisin: Savinase; 21 ppm inhibitor in detergent of Table 3) | Remaining activity of Lipase (Lipase: Lipex 100L; 21 ppm inhibitor in detergent of Table 3 with Savinase) | Remaining activity of Subtilisin, 4 weeks at 37° C. (Subtilisin Coronase 48L) | Remaining activity of Subtilisin, 4 weeks at 37° C. [2] | Remaining activity of Lipase, 8 weeks at 30° C. (Lipase: Lipoclean 2000L; with Coronase 48L, 59 ppm inhibitor in detergent of Table 5) | Remaining activity of Lipase, 8 weeks at 30° C. (Lipase: Lipoclean 2000L; with Liquanase 2.5L, 34 ppm inhibitor in detergent of Table 5) | remaining activity at 128 ppm (Subtilisin: Savinase; 128 ppm inhibitor in detergent of Table 3, read-out: Remaining activity of Subtilisin (protease)) | Remaining activity of Lipase (Lipase: Lipex 100L; 128 ppm inhibitor in detergent of Table 3 with Savinase)
1 | C[C@H](NC(=O)CNC(=O)OCc1ccccc1)C(=O)N[C@@H](Cc1ccc(O)cc1)C(O)S(=O)(=O)[O-].[Na+] (some centres unmarked) [Cbz-GA-NHCH(CH2C6H4OH)C(OH)(SO3M)-H] | 52% | 77% | 80% | 63% | 18% | 80% | 83% | 61% | 27% | – | –
2 | O=Cc1ccc(B(O)O)cc1 [4-formylphenyl boronic acid, reference compound] | – | – | – | – | – | – | – | – | – | 8% | 2%
